In ChEMBL document CHEMBL1201862, “PubChem BioAssay data set” (2004):
Active and inactive are the calls of the source.

Assays:
[1] = system: SN12K1; test: cells; type: functional; conditions: Homo sapiens
[2] = system: P388; test: cells; type: functional; conditions: Mus musculus
[3] = system: P388/ADR; test: cells; type: functional; conditions: Mus musculus
[4] = biological target: T1, Polyadenylate-binding protein 1 (Homo sapiens, UniProt P11940); test: MLLE binding blockers, Cy5 peptide tracer – biochemical, fluorescence polarization, Cy5-PAM2 peptide, secondary, miRNA deadenylation inhibitor project, dose response (AID 602260); type: functional; conditions: read-out: IC50_Mean
T1 sequence (P11940 whole entry, the tested form may be a part): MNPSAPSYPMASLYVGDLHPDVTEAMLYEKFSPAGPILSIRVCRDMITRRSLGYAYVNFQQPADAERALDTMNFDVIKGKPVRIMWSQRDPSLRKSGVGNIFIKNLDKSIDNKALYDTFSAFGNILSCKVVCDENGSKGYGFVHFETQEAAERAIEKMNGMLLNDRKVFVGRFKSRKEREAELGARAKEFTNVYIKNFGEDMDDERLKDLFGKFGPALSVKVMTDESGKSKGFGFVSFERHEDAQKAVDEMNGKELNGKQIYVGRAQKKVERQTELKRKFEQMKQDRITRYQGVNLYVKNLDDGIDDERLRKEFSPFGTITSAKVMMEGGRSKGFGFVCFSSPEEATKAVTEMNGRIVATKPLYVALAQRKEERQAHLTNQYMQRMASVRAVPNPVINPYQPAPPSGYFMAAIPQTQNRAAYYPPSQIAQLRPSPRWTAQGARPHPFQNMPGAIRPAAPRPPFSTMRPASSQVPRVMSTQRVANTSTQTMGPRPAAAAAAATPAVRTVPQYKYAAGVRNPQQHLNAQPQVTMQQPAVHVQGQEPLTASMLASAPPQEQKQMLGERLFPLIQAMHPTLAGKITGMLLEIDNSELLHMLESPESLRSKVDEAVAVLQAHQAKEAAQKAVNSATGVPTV

[5] = biological target: T1, Polyadenylate-binding protein 1; test: MLLE domain peptide-binding blockers, IC50 – biochemical, fluorescence polarization, FITC-PAM2 peptide, dose response (AID 602259); type: functional; conditions: read-out: IC50_Mean
[6] = biological target: T2, High affinity choline transporter 1 (Homo sapiens, UniProt Q9GZV3); test: human choline transporter blockers, potency – cell-based, 5-point CRC, membrane potential dye, dose response (AID 504840); type: functional
T2 sequence (Q9GZV3 whole entry): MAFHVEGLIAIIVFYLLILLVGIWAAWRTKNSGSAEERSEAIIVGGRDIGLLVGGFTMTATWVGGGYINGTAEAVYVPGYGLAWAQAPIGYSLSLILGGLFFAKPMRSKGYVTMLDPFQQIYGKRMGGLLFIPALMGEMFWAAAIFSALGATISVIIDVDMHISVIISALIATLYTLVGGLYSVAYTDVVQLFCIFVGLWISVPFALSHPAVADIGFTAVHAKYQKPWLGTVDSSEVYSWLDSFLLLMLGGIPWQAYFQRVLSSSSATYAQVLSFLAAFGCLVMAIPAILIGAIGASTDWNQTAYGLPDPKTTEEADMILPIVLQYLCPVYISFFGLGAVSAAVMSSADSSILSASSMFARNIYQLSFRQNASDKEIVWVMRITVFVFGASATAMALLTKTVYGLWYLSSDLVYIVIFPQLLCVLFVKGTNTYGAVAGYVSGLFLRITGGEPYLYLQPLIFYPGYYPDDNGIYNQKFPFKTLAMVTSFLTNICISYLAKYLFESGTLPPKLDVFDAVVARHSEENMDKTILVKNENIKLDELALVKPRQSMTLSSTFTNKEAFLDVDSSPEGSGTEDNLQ

[7] = biological target: Induced myeloid leukemia cell differentiation protein Mcl-1 (Homo sapiens, UniProt Q07820); type: functional
Induced myeloid leukemia cell differentiation protein Mcl-1, sequence (Q07820 whole entry, the tested form may be a part): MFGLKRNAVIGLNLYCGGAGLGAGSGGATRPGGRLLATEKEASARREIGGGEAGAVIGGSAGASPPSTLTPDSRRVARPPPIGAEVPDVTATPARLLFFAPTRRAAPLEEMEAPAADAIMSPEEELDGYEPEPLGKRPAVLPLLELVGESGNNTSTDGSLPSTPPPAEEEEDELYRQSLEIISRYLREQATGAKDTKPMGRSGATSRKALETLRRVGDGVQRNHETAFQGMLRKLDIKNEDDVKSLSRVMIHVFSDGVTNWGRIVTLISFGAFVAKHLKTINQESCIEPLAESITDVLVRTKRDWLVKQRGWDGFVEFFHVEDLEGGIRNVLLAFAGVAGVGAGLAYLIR

[8] = biological target: T3, Carboxy-terminal domain RNA polymerase II polypeptide A small phosphatase 1 (Homo sapiens, UniProt Q9GZU7); test: CTDSP1 inhibitors, concentration-response, biochemical, absorbance readout, ultra-high-throughput screen actives (AID 540297); type: functional
T3 sequence (Q9GZU7 whole entry): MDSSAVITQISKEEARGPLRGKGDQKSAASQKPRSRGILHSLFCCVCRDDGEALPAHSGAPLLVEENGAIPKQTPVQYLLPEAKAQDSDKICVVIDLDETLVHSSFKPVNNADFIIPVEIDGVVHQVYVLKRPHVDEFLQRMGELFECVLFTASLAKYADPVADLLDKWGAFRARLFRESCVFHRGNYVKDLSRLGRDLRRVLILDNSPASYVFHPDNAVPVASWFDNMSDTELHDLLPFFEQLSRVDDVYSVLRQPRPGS

[9] = viability of PTEN-deleted HCT116 cells – cell-based, HCT116 PTEN knockout, dose response (AID 1047); type: functional;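 also: HCT116 colon tumor cells with PTEN knocked out; cells exposed to compound for 60 hours before readout; potency for loss of cell viability measured by luminescence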
[10] = viability of HCT116 lacking mutant beta-catenin – cell-based, human colon tumor, dose response (AID 1045); type: functional;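 also: HCT116 colon tumor cells with beta catenin knocked out; cells exposed to compound for 60 hours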
[11] = biological target: T4, Calpain-2 catalytic subunit (Sus scrofa, UniProt P43367); test: m-calpain protease blockers, concentration series – biochemical, fluorogenic peptide substrate, dose response (AID 1420); type: functional
T4 sequence (P43367 whole entry): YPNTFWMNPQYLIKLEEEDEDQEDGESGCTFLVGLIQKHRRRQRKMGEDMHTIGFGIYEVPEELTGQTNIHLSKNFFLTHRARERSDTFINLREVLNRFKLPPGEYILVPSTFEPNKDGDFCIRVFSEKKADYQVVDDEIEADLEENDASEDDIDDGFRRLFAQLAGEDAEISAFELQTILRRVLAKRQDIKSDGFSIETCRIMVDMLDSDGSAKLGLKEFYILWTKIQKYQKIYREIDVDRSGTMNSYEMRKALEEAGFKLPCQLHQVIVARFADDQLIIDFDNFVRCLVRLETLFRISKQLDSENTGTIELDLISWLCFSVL

[12] = HIV-1 AD8 envelope cell-cell fusion blockers – cherry-pick, dose response (AID 652062); type: functional, cell-based;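 also: luciferase signal from cell-cell fusion driven by HIV-1 clade B AD8 Env; potency is for inhibitors of fusion seen as a drop in luminescence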
[13] = blockers of HIV-1 envelope-mediated cell-cell fusion – cherry-pick, dose response (AID 652057); type: functional, cell-based
[14] = blockers of HIV-1 ZM109 envelope-driven cell-cell fusion – HeLa effector, CEM target cells, luciferase, cherry-pick, dose response (AID 652058); type: functional, cell-based;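 also: luciferase signal from HIV-1 Env mediated cell-cell fusion of effector and target cells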

Question: With `NC(=O)c1[nH]nc(C2OC(CO)C(O)C2O)c1O` (stereo unspecified) as the compound, how does the GI50 [1] read?
Answer: 0.561 µM (active)

Question: What about the GI50 [2] of the same compound?
Answer: 0.5 µM (active)

Question: What about the GI50 [3] of the same compound?
Answer: 0.5 µM (active)

Question: With `NC(Cc1cc(I)c(O)c(I)c1)C(=O)O` (stereo unspecified) as the compound, how does the GI50 [1] read?
Answer: 169 µM (inactive)

Question: What about the GI50 [2] of the same compound?
Answer: 21.6 µM (inactive)

Question: And the GI50 [3]?
Answer: 21.3 µM (inactive)

Question: With `CCCCC1NC(C(=O)O)CS1` (stereo unspecified) as the compound, how does the IC50 [4] read?
Answer: > 66 µM (inactive)

Question: What about the IC50 [5] of the same compound?
Answer: > 66 µM (inactive)

Question: For `CC1(C)N=C(N)N=C(N)N1c1ccc(CCCCc2ccc(S(=O)(=O)F)cc2Cl)c(Cl)c1`, which GI50 [1] is on record?
Answer: 0.979 µM (active)

Question: And the GI50 [2]?
Answer: 0.05 µM (active)

Question: What about the GI50 [3] of the same compound?
Answer: 0.369 µM (active)

Question: Which IC50 [4] does the source give for `CCCCNC(=O)c1sc(=S)n(-c2ccccc2OC)c1N` here?
Answer: > 66 µM (inactive)

Question: What about the IC50 [5] of the same compound?
Answer: > 66 µM (inactive)

Question: Which IC50 [6] does the source give for `Cc1ccc(-c2cc(C(=O)NCCCn3ccnc3)c3cc(Br)ccc3n2)o1` here?
Answer: 11.5 µM (active)

Question: And the IC50 [7]?
Answer: 3.07 µM (not active)

Question: Which IC50 [4] does the source give for `COc1ccc(C(=O)CCN2CCC(C)CC2)cc1` here?
Answer: > 66 µM (inactive)

Question: And the IC50 [5]?
Answer: > 66 µM (inactive)

Question: With `[N-]=[N+]=CC(=O)CCC(NC(=O)C(CCC(=O)C=[N+]=[N-])NC(=O)CCC(N)C(=O)O)C(=O)O` (stereo unspecified) as the compound, how does the GI50 [1] read?
Answer: > 100 µM (inactive)

Question: And the GI50 [2]?
Answer: > 100 µM (inactive)

Question: And the GI50 [3]?
Answer: > 100 µM (inactive)

Question: Which results are given for `CCOP(=O)(Cc1cc(C(C)=O)c(C)o1)OCC`?
Answer: IC50 [4]: > 66 µM (inactive); IC50 [5]: > 66 µM (inactive)

Question: Which IC50 [8] does the source give for `CCn1c(C)cc(C)[n+]1-c1ccccc1` here?
Answer: 13.2 µM (active)

Question: What does the source list for `c1ccc(N2CCN(c3ncnc4scc(-c5cccs5)c34)CC2)cc1`?
Answer: EC50 [9]: 56.8 µM (active); EC50 [10]: 71.5 µM (active); IC50 [11]: 1.1 µM (not active)

Question: With `N#C/C(=C/c1ccc(-c2ccc(C(=O)O)c(Cl)c2)o1)C(=O)NCC1CCCO1` (stereo unspecified) as the compound, how does the IC50 [8] read?
Answer: 33.2 µM (active)

Question: For `Cc1noc(NS(=O)(=O)c2ccc(NC(=O)c3ccc(N4C(=O)c5ccccc5C4=O)cc3)cc2)c1C`, which IC50 [11] is on record?
Answer: 4.9 µM (not active)

Question: With `O=C(C1CC1)N1CCc2cc(Br)cc(S(=O)(=O)NC3CCCCC3)c21` as the compound, how does the IC50 [11] read?
Answer: > 50 µM (not active)

Question: Which GI50 [1] does the source give for `CCNCCCCNCC` here?
Answer: > 3750 µM (inactive)

Question: And the GI50 [2]?
Answer: 1560 µM (inactive)

Question: What about the GI50 [3] of the same compound?
Answer: > 3750 µM (inactive)

Question: Which AC50 [12] does the source give for `C[C@H]1CN([C@@H](C)CO)C(=O)Cc2cc(NC(=O)Nc3ccccc3)ccc2O[C@H]1CN(C)S(=O)(=O)c1ccccc1` here?
Answer: 5.2 µM (active)

Question: What about the AC50 [13] of the same compound?
Answer: 5.16 µM (active)

Question: What about the AC50 [14] of the same compound?
Answer: 4.49 µM (active)

Question: Which IC50 [8] does the source give for `O=C(CCN1C(=O)/C(=C/c2ccc(F)cc2)SC1=S)Nc1cc([N+](=O)[O-])ccc1O` here?
Answer: 7.68 µM (active)
